Data on 4 compounds can be found in patent US9062041B2 (Bayer Intellectual Property GmbH, priority 2011, dated 2015).

Series [1] can be described thus: Pharmacokinetic parameters after intravenous administration. Format: in vivo, rat. Particulars: for half-life: plasma. As to the method: 5. Determination of the Pharmacokinetic Parameters after Intravenous Administration
5.1. Intravenous Administration:
For this, the substances were administered in dissolved form, compatible solubilizers such as PEG400 and/or ethanol being used in tolerable quantity. The substances were administered at a dosage of 0.1-1 mg/kg. The administration was effected in the female rat as a bolus injection. Here, at various times after bolus injection ca. 100-150 μl blood samples were withdrawn from the jugular vein via a catheter. The blood samples were treated with lithium-heparin as anticoagulant and stored refrigerated until further work-up. After centrifugation of the samples for 15 mins at 3000 rpm, an aliquot of 100 μl was withdrawn from the supernatant (plasma) and precipitated by addition of 400 μl of cold acetonitrile or methanol (absolute). The precipitated samples were frozen overnight at −20° C., then centrifuged once again for 15 mins at 3000 rpm, before 150 μl of the clear supernatant was withdrawn for the concentration determination. The analysis was performed with an Agilent 1200 HPLC system with attached LCMS/MS detection.
5.2 Calculation of the PK Parameters
The calculation was performed by means of the PK calculation software WinNonLin®, where t1/2 means half-life within a specified interval (here: terminal t1/2, in hrs).

For series [2], the target named is EP2 subtype of the human PGE2 receptor (Homo sapiens, UniProt P43116). The experiment in a line: cAMP antagonism test on the human EP2 receptor (HTRF cAMP detection). As to conditions: hEP2 receptor. Format: cell-based. In short, it runs like this: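 Read-out is a competitive HTRF for cAMP: lysate cAMP displaces cAMP-d2 from Eu cryptate-labelled antibody, and antagonism raises the 665/620 nm ratio. Compound (0.8 nM–16.5 μM) added to EP2 cells 20 min at RT before 60 min PGE2 challenge (3× stock 1.5 nM) with IBMX, followed by 20 min lysis.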
Sequence of EP2 subtype of the human PGE2 receptor (P43116 whole entry): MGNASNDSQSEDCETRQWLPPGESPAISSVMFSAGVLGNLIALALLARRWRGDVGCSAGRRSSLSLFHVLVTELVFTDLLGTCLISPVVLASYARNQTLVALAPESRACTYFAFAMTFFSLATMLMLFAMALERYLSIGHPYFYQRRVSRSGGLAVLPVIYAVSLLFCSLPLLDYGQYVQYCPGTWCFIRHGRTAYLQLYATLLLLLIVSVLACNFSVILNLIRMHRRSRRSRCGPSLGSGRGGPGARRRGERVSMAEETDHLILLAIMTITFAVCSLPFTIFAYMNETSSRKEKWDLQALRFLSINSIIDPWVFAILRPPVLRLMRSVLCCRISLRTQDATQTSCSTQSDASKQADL

The subject of series [3] is female cynomolgus monkeys (Macaca Fascicularis). Briefly: In-vivo action on fertility in non-human primates (mating study). As to conditions: 6 months, 10 mg/kg (Example 17 once daily, Example 56 twice daily). As to the method: 4.4 In-Vivo Action on Fertility in Non-Human Primates (Cynomolgus):
In order to study the effect of substances on fertility, mating studies can be performed in monkeys (Jensen et al. Contraception 81 (2010) 165-171). For this, the test substances are administered to female cynomolgus monkeys (Macaca Fascicularis) which are being kept in groups, then the animals are mated with a male animal. Matings are checked for by sperm detection in daily vaginal smears. Pregnancies resulting therefrom are identified by hormone determinations and ultrasound examinations. Through the changes in the serum oestradiol concentrations during the cycle, (rise before the midcycle LH peak), the fertile phase within a cycle of the individual animals can be determined Matings in this fertile period are described as “timed matings” (matings in the fertile phase). Apart from the absolute number of pregnancies occurring, the effect on the fertility can also be expressed as pregnancies per “timed matings”.
To test the action of EP2 receptor antagonists on fertility in monkeys, Examples 17 and 56 according to the invention were administered over 6 months, dissolved in 0.5 ml castor oil. Example 17 was administered once daily at a dosage of 10 mg/kg (n=10 animals), while Example 56 was administered twice daily at a dosage of 10 mg/kg (n=9 animals). Only the vehicle was administered to a control group (n=10 animals). In the first month of the treatment, no male animal was placed with the female animals. After this, female and male animals were kept together over 5 months, with detection of pregnancies and cycle monitoring.

Series [4] relates to ovulated cumulus-oocyte complexes. Briefly: In-vivo action on post-ovulatory in-vitro fertilization. Further details: species or system mice (strain: B6D2F1). Particulars: mice. From the text:
4.3 In-Vivo Action on Post-Ovulatory In-Vitro Fertilization: Substances can exert an influence on fertility by decreasing the fertilizability of oocytes or cumulus-oocyte complexes. In order to study such effects, substances can be administered in vivo and subjected to in vitro fertilization after ovulation of cumulus-oocyte complexes has taken place. The in-vitro fertilization rate, where no test substance is any longer present, allows conclusions as to the in-vivo effects of the test substances. Immature female mice (strain: B6D2F1, Charles River, Suelzfeld, age: 19-25 days) were kept in Macrolon cages in rooms with controlled illumination (12 hrs darkness: 12 hrs light), fed with a standard diet and provided with drinking water ad libitum. The mice were primed with PMSG (pregnant mare serum gonadotropin) (10 IU/animal i.p.). After 48 hours, a stimulus triggering ovulation was created in the animals by one administration of 10 IU/animal i.p. (hCG, human chorionic gonadotropin). The test substances were dissolved in benzyl benzoate/castor oil (1+4 v/v) and administered in a volume of 0.1 ml s.c. 1 hour before hCG (n=5 animals per group). Fourteen hours after hCG administration, the animals were killed. Ovulated oocytes and cumulus-oocyte complexes were obtained from the bursa ovarii and/or oviduct and subjected to in-vitro fertilization, wherein for the fertilization a sperm count of 40000 sperms/0.5 ml was used for 1 hour. Twenty-four hours after the incubation with the sperms, the number of fertilized oocytes is established and the percentage fertilization rate determined.

Where [5] appears, read: after intravenous administration in the female rat, read-out: Terminal half-life t1/2 (converted).

SMILES strings stand for the structures. Read-outs that look alike come from different tables or passages of the source.

In the case of `COCCNC(=O)c1ccc2nn(CC3CN(C(=O)c4ccc(Cl)cc4)C3)cc2c1C` [Example 117, 2-{[1-(4-chlorobenzoyl)azetidin-3-yl]methyl}-N-(2-methoxyethyl)-4-methyl-2H-indazol-5-carboxamide], the half-life in series [1] (setting [5]) was 2 h. Besides, the IC50 in series [2] (read-out: Antagonism hEP2 IC50) was determined as 17.8 nM.
As to `COCCNC(=O)c1ccc2nn(CC3CCN(C(=O)c4ccc(Oc5ccc(C(F)(F)F)cc5)cc4)CC3)cc2c1C` [Example 17, N-(2-methoxyethyl)-4-methyl-2-[(1-{4-[4-(trifluoromethyl)-phenoxy]benzoyl}-piperidin-4-yl)-methyl]-2H-indazol-5-carboxamide], in series [3], the “% Pregnancies/"timed mating"” value is recorded as 6%. This compound had a Pregnancies in series [3] of 3. Moreover, the “Terminal half-life t1/2” value in series [1] (after intravenous administration in the female rat) amounted to 2.5 h. Also, the half-life in series [1] (intravenous administration, female rat, read-out: terminal half-life t1/2 (converted)) was 2.5 h. In addition, the “% fertilization with 1 mg/kg” value in series [4] (1 mg/kg s.c. 1 hour before hCG, in-vitro fertilization rate) amounted to 20 ± 10%. In series [4] (5 mg/kg s.c. 1 hour before hCG, in-vitro fertilization rate), the “% fertilization with 5 mg/kg” value is recorded as 9 ± 1%. In addition, the “% fertilization with 10 mg/kg” value in series [4] (10 mg/kg s.c. 1 hour before hCG, in-vitro fertilization rate) is 8 ± 4%. The “influence on the fertilizability of ovulated cumulus-oocyte complexes” value in series [4] (in-vivo administration) was “dose-dependent influence”. In addition, the IC50 in series [2] (read-out: Antagonism hEP2 IC50) amounted to 3.44 nM; in series [2] (read-out: IC50), 3.4 nM.
As for `Cc1c(C(=O)NCC(F)(F)F)ccc2nn(CC3CCN(C(=O)c4ccc(Oc5ccc(F)cc5)cc4)CC3)cc12` [Example 283, 2-({1-[4-(4-fluorophenoxy)benzoyl]piperidin-4-yl}methyl)-4-methyl-N-(2,2,2-trifluoroethyl)-2H-indazol-5-carboxamide], the half-life in series [1] (setting [5]) is 5.8 h. In series [2] (read-out: Antagonism hEP2 IC50), the IC50 was 65.5 nM.
For `COCCNC(=O)c1ccc2nn(CC3CCN(C(=O)c4ccc(-c5ccc(F)cc5)cc4F)CC3)cc2c1C` [Example 42, 2-({1-[(3,4′-difluoro-biphenyl-4-yl)-carbonyl]piperidin-4-yl}methyl)-N-(2-methoxyethyl)-4-methyl-2H-indazol-5-carboxamide], the half-life in series [1] (setting [5]) is 3.2 h. In addition, in series [2] (read-out: Antagonism hEP2 IC50), the IC50 is 4.75 nM.
